In brackets after ≈: the same amount, converted by molar mass.
Experiments:
[1] = target: T1, Carnitine O-palmitoyltransferase 1, muscle isoform (Homo sapiens, UniProt Q92523); assay: SUPPLEMENTARY: Inhibition of Carnitine palmitoyltransferase 1, muscle isoform; design: species or system Muscle tissue
T1 sequence (Q92523 whole entry): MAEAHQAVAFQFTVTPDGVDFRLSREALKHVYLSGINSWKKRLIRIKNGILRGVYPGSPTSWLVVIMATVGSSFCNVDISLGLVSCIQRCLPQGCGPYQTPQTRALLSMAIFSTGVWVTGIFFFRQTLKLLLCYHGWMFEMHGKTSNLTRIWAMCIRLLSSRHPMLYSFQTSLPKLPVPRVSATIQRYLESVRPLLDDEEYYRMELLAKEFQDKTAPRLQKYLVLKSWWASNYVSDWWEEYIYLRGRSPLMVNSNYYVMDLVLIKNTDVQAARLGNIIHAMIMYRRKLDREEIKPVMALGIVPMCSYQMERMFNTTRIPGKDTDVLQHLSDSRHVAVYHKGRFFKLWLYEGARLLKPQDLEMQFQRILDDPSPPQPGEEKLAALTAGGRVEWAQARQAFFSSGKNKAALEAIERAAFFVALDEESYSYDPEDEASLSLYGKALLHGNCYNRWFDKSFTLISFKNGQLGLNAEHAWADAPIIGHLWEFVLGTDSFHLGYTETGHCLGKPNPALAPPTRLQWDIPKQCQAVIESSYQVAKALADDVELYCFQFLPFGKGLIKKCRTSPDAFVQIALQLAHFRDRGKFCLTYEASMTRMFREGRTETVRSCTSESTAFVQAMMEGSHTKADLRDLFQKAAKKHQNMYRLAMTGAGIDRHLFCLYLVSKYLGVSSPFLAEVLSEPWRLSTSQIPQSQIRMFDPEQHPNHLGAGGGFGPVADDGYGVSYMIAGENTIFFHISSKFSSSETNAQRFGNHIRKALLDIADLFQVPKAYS

[2] = target: T2, Carnitine O-palmitoyltransferase 2, mitochondrial (Homo sapiens, UniProt P23786); assay: (§1) SUPPLEMENTARY: Inhibition of Carnitine palmitoyltransferase 2
T2 sequence (P23786 whole entry): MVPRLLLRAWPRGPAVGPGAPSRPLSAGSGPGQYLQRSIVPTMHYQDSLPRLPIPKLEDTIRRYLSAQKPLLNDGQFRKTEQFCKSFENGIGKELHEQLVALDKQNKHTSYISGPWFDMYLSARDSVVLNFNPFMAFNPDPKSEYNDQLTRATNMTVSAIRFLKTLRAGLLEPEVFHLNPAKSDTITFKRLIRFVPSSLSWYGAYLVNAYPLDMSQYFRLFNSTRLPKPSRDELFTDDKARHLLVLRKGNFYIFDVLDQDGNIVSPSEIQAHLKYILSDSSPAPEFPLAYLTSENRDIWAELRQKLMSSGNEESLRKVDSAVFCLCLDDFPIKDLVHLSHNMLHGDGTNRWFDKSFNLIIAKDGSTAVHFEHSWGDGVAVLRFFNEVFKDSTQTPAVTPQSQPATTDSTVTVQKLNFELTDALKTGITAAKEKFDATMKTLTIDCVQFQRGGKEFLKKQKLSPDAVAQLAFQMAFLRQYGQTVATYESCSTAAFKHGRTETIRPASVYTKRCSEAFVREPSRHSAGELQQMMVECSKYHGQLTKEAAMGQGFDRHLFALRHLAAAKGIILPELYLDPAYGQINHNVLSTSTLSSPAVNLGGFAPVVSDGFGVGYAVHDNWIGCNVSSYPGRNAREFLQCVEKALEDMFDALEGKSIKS

[3] = target: T3, Carnitine O-palmitoyltransferase 2, mitochondrial (Rattus norvegicus, UniProt P18886); assay: as §1
T3 sequence (P18886 whole entry): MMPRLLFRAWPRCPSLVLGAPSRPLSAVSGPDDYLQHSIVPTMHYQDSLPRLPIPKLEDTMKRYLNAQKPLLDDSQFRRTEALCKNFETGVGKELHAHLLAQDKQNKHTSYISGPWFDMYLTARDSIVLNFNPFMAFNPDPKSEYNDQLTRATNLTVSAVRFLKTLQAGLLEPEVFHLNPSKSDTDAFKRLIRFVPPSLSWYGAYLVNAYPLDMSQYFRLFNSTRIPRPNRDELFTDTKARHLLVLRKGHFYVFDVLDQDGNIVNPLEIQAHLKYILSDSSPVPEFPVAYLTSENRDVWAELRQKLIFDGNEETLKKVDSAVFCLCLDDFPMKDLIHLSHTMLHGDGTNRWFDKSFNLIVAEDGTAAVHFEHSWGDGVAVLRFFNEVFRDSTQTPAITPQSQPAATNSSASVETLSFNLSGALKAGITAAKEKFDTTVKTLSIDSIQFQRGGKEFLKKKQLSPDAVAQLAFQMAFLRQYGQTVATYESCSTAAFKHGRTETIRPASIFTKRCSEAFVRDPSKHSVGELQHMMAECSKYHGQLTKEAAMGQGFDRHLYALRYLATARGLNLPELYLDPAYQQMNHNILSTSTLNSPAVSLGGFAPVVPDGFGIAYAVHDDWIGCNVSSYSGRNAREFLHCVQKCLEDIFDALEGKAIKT

[4] = target: T4, Carnitine O-palmitoyltransferase 1, liver isoform (Homo sapiens, UniProt P50416); assay: (§2) SUPPLEMENTARY: Inhibition of Carnitine palmitoyltransferase 1, liver isoform
T4 sequence (P50416 whole entry): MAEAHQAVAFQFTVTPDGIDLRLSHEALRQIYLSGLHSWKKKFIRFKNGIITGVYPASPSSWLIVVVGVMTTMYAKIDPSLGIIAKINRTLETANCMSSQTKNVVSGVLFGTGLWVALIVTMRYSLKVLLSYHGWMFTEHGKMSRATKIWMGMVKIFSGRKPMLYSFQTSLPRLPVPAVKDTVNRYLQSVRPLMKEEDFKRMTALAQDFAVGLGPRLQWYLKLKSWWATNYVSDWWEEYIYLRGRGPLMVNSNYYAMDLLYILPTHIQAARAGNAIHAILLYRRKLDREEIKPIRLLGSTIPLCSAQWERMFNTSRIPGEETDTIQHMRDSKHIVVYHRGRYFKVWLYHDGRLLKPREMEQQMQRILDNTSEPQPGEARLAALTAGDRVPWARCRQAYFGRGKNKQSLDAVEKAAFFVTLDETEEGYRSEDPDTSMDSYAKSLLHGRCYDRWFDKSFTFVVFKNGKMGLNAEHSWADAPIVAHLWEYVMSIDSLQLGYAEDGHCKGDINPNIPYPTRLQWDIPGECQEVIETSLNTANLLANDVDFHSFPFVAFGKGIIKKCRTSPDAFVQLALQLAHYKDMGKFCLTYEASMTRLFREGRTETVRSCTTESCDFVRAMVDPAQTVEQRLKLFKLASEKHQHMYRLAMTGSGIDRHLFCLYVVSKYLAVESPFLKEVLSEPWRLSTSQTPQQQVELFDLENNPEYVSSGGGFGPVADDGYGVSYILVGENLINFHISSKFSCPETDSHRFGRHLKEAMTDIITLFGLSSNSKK

[5] = target: T5, Carnitine O-palmitoyltransferase 1, liver isoform (Rattus norvegicus, UniProt P32198); assay: as §2
T5 sequence (P32198 whole entry): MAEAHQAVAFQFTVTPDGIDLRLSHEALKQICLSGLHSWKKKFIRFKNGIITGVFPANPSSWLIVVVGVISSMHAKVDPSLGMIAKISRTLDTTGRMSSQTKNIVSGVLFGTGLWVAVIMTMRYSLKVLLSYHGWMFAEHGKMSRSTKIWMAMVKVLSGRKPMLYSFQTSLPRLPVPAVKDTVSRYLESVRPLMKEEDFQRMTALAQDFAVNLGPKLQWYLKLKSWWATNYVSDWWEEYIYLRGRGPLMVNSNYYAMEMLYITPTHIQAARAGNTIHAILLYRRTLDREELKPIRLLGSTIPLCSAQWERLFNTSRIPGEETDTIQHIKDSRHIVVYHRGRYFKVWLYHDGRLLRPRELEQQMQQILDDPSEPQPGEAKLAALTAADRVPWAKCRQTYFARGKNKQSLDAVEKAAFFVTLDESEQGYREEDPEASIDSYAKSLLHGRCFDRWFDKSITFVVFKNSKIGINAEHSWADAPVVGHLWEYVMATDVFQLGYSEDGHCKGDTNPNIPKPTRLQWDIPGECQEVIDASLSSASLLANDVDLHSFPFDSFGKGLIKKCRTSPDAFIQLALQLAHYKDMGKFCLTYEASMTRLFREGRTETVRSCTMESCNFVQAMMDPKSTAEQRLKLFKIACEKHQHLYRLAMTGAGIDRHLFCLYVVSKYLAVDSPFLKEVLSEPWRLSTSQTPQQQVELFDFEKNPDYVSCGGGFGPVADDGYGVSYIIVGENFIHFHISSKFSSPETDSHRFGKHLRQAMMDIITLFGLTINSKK

[6] = SUPPLEMENTARY: Lyophilisation Solubility Assay (LYSA); assay type: physicochemical; details: read-out: Kinetic_solubility
[7] = SUPPLEMENTARY: PAMPA permeability assay; assay type: physicochemical; details: read-out: Permeability

## Nc1cc(-c2noc([C@H]3CCCCN3C(=O)COc3ccccc3)n2)ccn1
[1]
  IC50: > 100 µM
[2]
  IC50: 19.5 µM
[3]
  IC50: 35.2 µM
[4]
  IC50: 108 nM
[5]
  IC50: 250 nM
[6]
  solubility kinetic: 106 µg/mL (≈ 279 µM)
[7]
  Papp: 5.3 ×10⁻⁶ cm/s

## COc1ccc(Cl)cc1S(=O)(=O)N1CCNc2ccc(C(=O)Nc3ccc(C(=O)O)cc3)cc21
[1]
  IC50: 11.8 µM
[2]
  IC50: > 100 µM
[3]
  IC50: > 100 µM
[4]
  IC50: 71.3 nM
[5]
  IC50: 189 nM
[6]
  solubility kinetic: 1 µg/mL (≈ 1.99 µM)
[7]
  Papp: 0.81 ×10⁻⁶ cm/s

## Cc1cc(C(=O)Nc2ccc(-c3nnn[nH]3)cc2)nn1Cc1ccc(OC(F)F)cc1
[1]
  IC50: 6.17 µM
[2]
  IC50: 72.6 µM
[3]
  IC50: 81.6 µM
[4]
  IC50: 192 nM
[5]
  IC50: 932 nM
[6]
  solubility kinetic: 31 µg/mL (≈ 72.9 µM)
[7]
  Papp: 1.23 ×10⁻⁶ cm/s

## O=C(Nc1ccc(C(=O)O)c(F)c1)c1ccc2c(c1)N(S(=O)(=O)c1cccc(Cl)c1)CCO2
[1]
  IC50: 6.92 µM
[2]
  IC50: 18.6 µM
[3]
  IC50: > 100 µM
[4]
  IC50: 207 nM
[5]
  IC50: 72.3 nM
[6]
  solubility kinetic: 4 µg/mL (≈ 8.15 µM)
[7]
  Papp: 2.21 ×10⁻⁶ cm/s

## COc1ccc(Cl)cc1S(=O)(=O)N1CCCCc2ccc(C(=O)Nc3ccc(C(=O)O)c(F)c3)cc21
[1]
  IC50: 9.1 µM
[2]
  IC50: 28.1 µM
[3]
  IC50: 46.5 µM
[4]
  IC50: 131 nM
[5]
  IC50: 134 nM
[6]
  solubility kinetic: 345 µg/mL (≈ 647 µM)
[7]
  Papp: 2.15 ×10⁻⁶ cm/s

## O=C(NC1CC1)c1cncc(-c2noc([C@H]3CCCCN3C(=O)COc3ccccc3)n2)c1
[1]
  IC50: > 100 µM
[2]
  IC50: > 100 µM
[3]
  IC50: > 100 µM
[4]
  IC50: 111 nM
[5]
  IC50: 1000 nM
[6]
  solubility kinetic: 138 µg/mL (≈ 308 µM)
[7]
  Papp: 3.2 ×10⁻⁶ cm/s

## COc1ccc(Cl)cc1S(=O)(=O)N1COc2c(F)cc(C(=O)Nc3ccc(C(=O)O)cc3)cc21
[1]
  IC50: 17.6 µM
[2]
  IC50: 15.1 µM
[3]
  IC50: > 100 µM
[4]
  IC50: 42.5 nM
[5]
  IC50: 63.4 nM
[6]
  solubility kinetic: 15 µg/mL (≈ 29.6 µM)
[7]
  Papp: 2.2 ×10⁻⁶ cm/s

## COc1ccc(Cl)cc1S(=O)(=O)N1COc2c(F)cc(C(=O)Nc3ccc(C(=O)O)c(Cl)c3)cc21
[1]
  IC50: 2.73 µM
[2]
  IC50: 2.78 µM
[3]
  IC50: 9.57 µM
[4]
  IC50: 130 nM
[5]
  IC50: 123 nM
[6]
  solubility kinetic: 73 µg/mL (≈ 135 µM)
[7]
  Papp: 1.79 ×10⁻⁶ cm/s

## COc1ccc(Cl)cc1S(=O)(=O)N1CC(C)c2ccc(C(=O)Nc3ccc(C(=O)O)cc3)cc21 (centres undefined)
[1]
  IC50: 2.24 µM
[2]
  IC50: 0.672 µM
[3]
  IC50: 1.66 µM
[4]
  IC50: 62.2 nM
[5]
  IC50: 21 nM
[6]
  solubility kinetic: 12 µg/mL (≈ 24 µM)
[7]
  Papp: 2.4 ×10⁻⁶ cm/s

## COc1ccc(Cl)cc1S(=O)(=O)N1CCOc2c(F)cc(C(=O)Nc3ccc(C(=O)O)cc3)cc21
[1]
  IC50: > 100 µM
[2]
  IC50: 11.3 µM
[3]
  IC50: > 100 µM
[4]
  IC50: 77.5 nM
[5]
  IC50: 45.2 nM
[6]
  solubility kinetic: 5 µg/mL (≈ 9.6 µM)
[7]
  Papp: 2.44 ×10⁻⁶ cm/s

## COc1ccc(Cl)cc1Sc1cn(C)c2ccc(C(=O)Nc3ccc(C(=O)O)cc3)cc12
[1]
  IC50: > 100 µM
[2]
  IC50: > 100 µM
[3]
  IC50: > 100 µM
[4]
  IC50: 61.9 nM
[5]
  IC50: 74 nM
[6]
  solubility kinetic: 2 µg/mL (≈ 4.28 µM)
[7]
  Papp: 0.53 ×10⁻⁶ cm/s

## COc1ccc(Cl)cc1S(=O)(=O)N1CCOc2c(C)cc(C(=O)Nc3ccc(C(=O)O)cc3)cc21
[1]
  IC50: 21.1 µM
[2]
  IC50: 0.554 µM
[3]
  IC50: 4.33 µM
[4]
  IC50: 46.3 nM
[5]
  IC50: 41.3 nM
[6]
  solubility kinetic: 2 µg/mL (≈ 3.87 µM)
[7]
  Papp: 1.68 ×10⁻⁶ cm/s

Reference: ChEMBL document CHEMBL3431459, “Roche carnitine palmitoyltransferase modulator screening data (supplementary data associated with the publication CHEMBL2216752)”
